Measured values from US20060063842A1, “Hypogastric and/or perineal pain-relieving agent” (priority 2002, published 2006).
Counter-ions that a name gives are not always drawn.

System: patients with lower urinary tract symptoms
Experiment: Clinical test (12 week study) to patients suffering from lower urinary tract symptoms: pain scores
Type: in vivo
Experimental: Clinical Test (12 Week Study) to Patients Suffering from Lower Urinary Tract Symptoms A clinical study was conducted in patients with lower urinary tract symptoms under the conditions shown below. Subjects: Eighteen patients diagnosed to have urinary dysfunction without accompanying obvious organic or neurological abnormality in lower urinary tract. Study drug and the method of administration: Until Week 4, capsules each containing 0.2 mg tamsulosin hydrochloride were orally administered, one capsule/time/day, after breakfast. In Week 4, the doses for later than Week 4 were determined by referring to the Table below, and the doses determined were orally administered once daily after breakfast. <Criterion of Dose after 4 Weeks> [table] Study period: 12 weeks Observed items: Evaluations and measurements were made for the following items before and after the administration. (2) Pains The pain scores shown below were evaluated before administration, and 4 and 12 weeks after administration. <1> Hypogastric/perineal pain “How strong is hypogastric/perineal pain?” • 0: No pain • 1: Slightly painful • 2: Painful • 3: Quite painful • 4: Very painful <2> Lower backache “How strong is lower backache?” • 0: No pain • 1: Slightly painful • 2: Painful • 3: Quite painful • 4: Very painful

## CCOc1ccccc1OCCN[C@H](C)Cc1ccc(OC)c(S(N)(=O)=O)c1 [tamsulosin hydrochloride, (R)(−)-5-[2-[[2-(o-ethoxyphenoxy)ethyl]amino]propyl]-2-methoxybenzenesulfonamide]
12 week clinical study, 18 patients, oral 0.2 or 0.4 mg/day
  improvement of hypogastric/perineal pain or lower backache in patients with urinary dysfunction (overall conclusion): effective
Of 7 patients with score 1 (slightly painful) before administration, evaluation in Weeks 4 and 12, oral 0.2 or 0.4 mg/day once daily after breakfast
  number of patients with hypogastric/perineal pain improved to score 0 (no pain): 6 patients
Of 7 patients with score 1 before administration, evaluation in Weeks 4 and 12, oral 0.2 or 0.4 mg/day
  number of patients with hypogastric/perineal pain unchanged (score 1, slightly painful): 1 patient
The only 1 patient with lower backache (score 1, slightly painful) before administration, evaluation in Weeks 4 and 12, oral 0.2 or 0.4 mg/day
  lower backache score after administration: improved to score 0 (no pain)
